Measured values: patent US20030157712A1, “Methods for determining cell responses through EphB receptors” (priority 1997, published 2003)

How the values were obtained:
HRMEC = assay: Endothelial assembly into capillary-like structures (HRMEC); assay type: cell-based, human; conditions: HRMEC on Matrigel, two dimensional in vitro assay, 8 h
Method: Endothelial assembly into capillary-like structures. Twelve well plates (Falcon) were coated with thin layers of Matrigel. HRMEC were plated at a density of 4×10^4 cells/well in DME containing 1% fetal bovine serum. Indicated agonists, control peptides, alone, or in combination with the EphB1/Fc antagonist (1000 ng ml^−1) (FIG. 5) were added at the time of plating. Cells were incubated at 37° C. for 8 h and photographed using phase microscopy (magnification 100×) (Diaphot-TMD, Nikon).

[1] = test system: human renal microvascular endothelial cells; assay: Solid phase cell attachment assay (HRMEC); assay type: cell-based
Method: Solid phase cell attachment assays. Forty-eight-well plates (Falcon) were coated with a layer of nitrocellulose (Schleicher & Schuell) and allowed to air dry as described (47). Coated wells were incubated overnight at 4° C. with PBS containing matrix proteins at the indicated concentrations alone (no addition, NA) or in combination with dimeric EphrinB1/Fc. Two hours prior to assay, wells were washed twice then blocked at 37° C. with 1% BSA. Serum starved cells were harvested in 2 mM EDTA in PBS (HEK293) or recovered by trypsinization (HRMEC), washed twice in serum free medium containing 1% BSA, then plated at a density of 0.7-1×10^5 cells per well. After incubation at 37° C. for 1 hour (or as specified), unattached cells were dislodged by 5 brisk slaps of the plate on a horizontal surface. Wells were gently washed with PBS until cells were […] to albumin-coated wells. Adherent cells were fixed with 2% glutaraldehyde, stained with 0.5% crystal violet (in EtOH), and quantified by OD reading at 570 nm. In experiments using competitive peptides or blocking antibodies, cells were preincubated with the indicated peptides (100 μM) or antibodies (10 μg/ml) for 15 min at RT before plating. Results representative of three independent experiments are given as OD values and represent the mean of duplicate or triplicate wells±SEM. […]

Molecule: CCCCCCCCCCCCCC(=O)O[C@@H]1[C@@H](C)[C@@]2(O)[C@@H](C=C(CO)C[C@]3(O)C(=O)C(C)=C[C@@H]23)[C@@H]2C(C)(C)[C@]12OC(C)=O [phorbol myristate acetate, reference compound]
- endothelial capillary-like assembly (HRMEC): stimulated

Molecule: GRGDSPK [RGD peptide, reference compound]
- support of the ephrin-B1 induced increase in endothelial attachment ([1]; peptide-coated 48-well plates): sufficient

Molecule: fibrinogen [reference compound]
- threshold surface density of adsorbed matrix protein required to promote attachment ([1]; nitrocellulose surface): approximately 1 ug/cm^2
